Entries after “also recorded” stand apart in the source; their conditions may differ.
What was measured:
[1] = system: postmenopausal osteoporotic women; assay: ACTIVE Phase 3 trial, post hoc high BMI subgroup: new vertebral fractures; format: in vivo, human; details: overweight population, 18 months; for relative risk reduction of new vertebral fractures versus placebo: abaloparatide 80 μg or teriparatide 20 μg daily subcutaneous
Description: (§1) The ACTIVE pivotal Phase 3 fracture prevention trial for the PTHrP analogue abaloparatide, Study BA058-05-003 (see ClinicalTrials.gov), was a randomized, double-blind, placebo-controlled trial in postmenopausal osteoporotic women randomized to receive daily doses of one of the following for 18 months: 80 micrograms (μg) of abaloparatide; a matching placebo; or the approved daily dose of 20 μg of teriparatide. Treatment with abaloparatide at a daily dose of 80 μg or placebo remained blinded to all parties throughout the study. Teriparatide used was a proprietary prefilled drug and device combination that could not be repackaged. Therefore, its identity could not be blinded to treating physicians and patients once use began. Study medication was self-administered daily by subcutaneous injection for a maximum of 18 months. All enrolled patients also received calcium and vitamin D supplementation from the time of enrollment until the end of the treatment period. It was recommended to patients that they also continue these supplements through the one-month follow-up period.
(§2) The trial completed enrollment in March 2013 with 2,463 patients at 28 medical centers in 10 countries in the United States, Europe, Latin America, and Asia. In a post hoc analysis, a subgroup of overweight patients, patients with high BMI (≥27 kg/m^2, ≥24 kg/m^2 for Asian patients) was evaluated. The baseline characteristics of this sub-group of patients are detailed in Table 1 below.
(§3) The study enrolled otherwise healthy ambulatory women aged 49 to 86 (inclusive) who had been postmenopausal for at least five years, met the study entry criteria, and had provided written informed consent. […] All patients were to be in good general health as determined by medical history, physical examination (including vital signs), and clinical laboratory testing. This study population contained a patient population reflective of the type of severe osteoporosis patients that specialists would be expected to treat in their practices.
The study endpoints included BMD, new vertebral fractures, nonvertebral fractures (fractures excluding those of the spine, sternum, patella, digits, skull, and face and those with high trauma), any clinical fractures (all fractures causing a patient to seek medical care), and major osteoporotic fractures (fractures of the upper arm, wrist, hip, or clinical spine). […] Time to first incident nonvertebral, clinical, major osteoporotic, and wrist fracture assessed using Kaplan-Meier (KM) method; log-rank test (intent-to-treat [ITT] population). Change from baseline BMD evaluated for total hip, femoral neck, and lumbar spine (missing data points imputed by last observation carried forward; ITT population).

[2] = system: postmenopausal osteoporotic women; assay: ACTIVE Phase 3 trial, post hoc high BMI subgroup: BMD percent change from baseline; format: in vivo, human; details: for BMD increase as compared to placebo: total hip, femoral neck, lumbar spine
Description: as §1, §2, §3
(§4) The study endpoints included BMD, new vertebral fractures, nonvertebral fractures (fractures excluding those of the spine, sternum, patella, digits, skull, and face and those with high trauma), any clinical fractures (all fractures causing a patient to seek medical care), and major osteoporotic fractures (fractures of the upper arm, wrist, hip, or clinical spine). New vertebral fracture compared using Fisher exact test (modified intent-to-treat [mITT] population; participants with pretreatment/postbaseline spine x-rays). Time to first incident nonvertebral, clinical, major osteoporotic, and wrist fracture assessed using Kaplan-Meier (KM) method; log-rank test (intent-to-treat [ITT] population). Change from baseline BMD evaluated for total hip, femoral neck, and lumbar spine (missing data points imputed by last observation carried forward; ITT population).

[3] = system: postmenopausal osteoporotic women; assay: ACTIVE Phase 3 trial, post hoc high BMI subgroup: nonvertebral, clinical, major osteoporotic and wrist fractures (Kaplan-Meier); format: in vivo, human
Description: as §1, §2, §3, §4

[4] = system: postmenopausal osteoporotic women; assay: ACTIVE Phase 3 trial, post hoc high BMI subgroup: safety, treatment-emergent adverse events; format: in vivo, human; details: for Creatine renal clearance increased, (%): human
Description: as §1, §2
Safety evaluations performed in the ACTIVE trial included physical examinations, vital signs, 12-lead electrocardiograms, or ECGs, clinical laboratory tests and monitoring, and recording of adverse events. Specific safety assessments included pre-dose and post-dose (four hours) determination of serum calcium, determination of creatinine clearance, post-dose ECG assessments at selected visits, and assessments of postural hypotension (60 minutes post-dose) at selected clinic visits.
The ACTIVE trial also evaluated several potential safety measures. The treatment-emergent adverse events (TEAEs) reported by the overweight patients are summarized below in Table 2 for groups treated with placebo, abaloparatide, and teriparatide, respectively.

[5] = system: ovariectomy-induced osteopenic monkeys; details: cited from earlier work
[6] = system: subjects treated with abaloparatide; assay: Bone turnover markers PINP and CTX in treated subjects; format: in vivo, human
[7] = system: subjects treated with abaloparatide; assay: Trabecular bone score (TBS) in treated subjects; format: in vivo, human
Description: TBS is also a predictor of fragility fractures of the spine and hip in postmenopausal overweight women independent of BMD and other major clinical risk factors. As such, it captures additional patients at risk of fracture that are missed by BMD alone, and together with BMD more accurately captures bone strength.

[8] = system: subjects treated with abaloparatide; assay: Abaloparatide for 18 months followed by anti-resorptive therapy: fracture risk; format: in vivo, human; details: abaloparatide 18 months followed by anti-resorptive therapy (e.g., alendronate for 6 months)
[9] = system: ovariectomy-induced osteopenic rats; details: cited from earlier work
[10] = overweight patients, 6, 12 and 18 months
[11] = overweight population, 18 months
[12] = overweight patients, abaloparatide n = 262, teriparatide n = 281

Compound: CC[C@H](C)[C@H](NC(=O)[C@H](CCC(=O)O)NC(=O)[C@H](CO)NC(=O)[C@@H](NC(=O)[C@@H](N)CO)C(C)C)C(=O)N[C@@H](CCC(N)=O)C(=O)N[C@@H](CC(C)C)C(=O)N[C@@H](CCSC)C(=O)N[C@@H](Cc1cnc[nH]1)C(=O)N[C@@H](CC(N)=O)C(=O)N[C@@H](CC(C)C)C(=O)NCC(=O)N[C@@H](CCCCN)C(=O)N[C@@H](Cc1cnc[nH]1)C(=O)N[C@@H](CC(C)C)C(=O)N[C@@H](CC(N)=O)C(=O)N[C@@H](CO)C(=O)N[C@@H](CCSC)C(=O)N[C@@H](CCC(=O)O)C(=O)N[C@@H](CCCN=C(N)N)C(=O)N[C@H](C(=O)N[C@@H](CCC(=O)O)C(=O)N[C@@H](Cc1c[nH]c2ccccc12)C(=O)N[C@@H](CC(C)C)C(=O)N[C@@H](CCCN=C(N)N)C(=O)N[C@@H](CCCCN)C(=O)N[C@@H](CCCCN)C(=O)N[C@@H](CC(C)C)C(=O)N[C@@H](CCC(N)=O)C(=O)N[C@@H](CC(=O)O)C(=O)N[C@H](C(=O)N[C@@H](Cc1cnc[nH]1)C(=O)N[C@@H](CC(N)=O)C(=O)N[C@@H](Cc1ccccc1)C(=O)O)C(C)C)C(C)C [Teriparatide, teriparatide]
- new vertebral fractures, reduction vs. placebo [1]: significant reduction
- relative risk reduction of new vertebral fractures versus placebo [1]: 74%
- delay compared with the abaloparatide group to achieve the same level of BMD increase at total hip and femoral neck ([2]; overweight patients): about 6 months
- BMD increase as compared to placebo [2, 10]: significantly greater BMD increase
- major osteoporotic fractures (MOF), reduction versus placebo (Kaplan-Meier estimated cumulative incidence) [3, 11]: Significant reduction
- non-vertebral fractures (NVF), reduction versus placebo (Kaplan-Meier estimated cumulative incidence) [3, 11]: Significant reduction
- Creatine renal clearance increased, (%) ([4]; in vivo): (4.6) %
- Arthralgia, (%) ([4]; in vivo): (7.1) %
- Back pain, (%) ([4]; in vivo): (7.5) %
- Discontinuations, (%) ([4]; in vivo): (7.5) %
- Dizziness, (%) ([4]; in vivo): (8.2) %
- Headache, (%) ([4]; in vivo): (6.8) %
- Hypercalciuria, (%) ([4]; in vivo): (9.3) %
- Hypertension, (%) ([4]; in vivo): (6.4) %
- Nasopharyngitis, (%) ([4]; in vivo): (5.3) %
- Nausea, (%) ([4]; in vivo): (3.9) %
- Pain in extremity, (%) ([4]; in vivo): (3.6) %
- Serious TEAEs, (%) ([4]; in vivo): (13.9) %
- ≥1 TEAE, (%) ([4]; in vivo): (89.3) %
- Deaths, (%) [4, 12]: (0.4) %
- Influenza, (%) [4, 12]: (3.9) %
- Upper respiratory tract infection, (%) [4, 12]: (9.6) %
- Urinary tract infection, (%) [4, 12]: (6.8) %

Compound: abaloparatide
- bone loss [5]: complete reversal of bone loss
- new vertebral fractures, reduction vs. placebo [1]: statistically significant reduction; also recorded: significant risk reduction
- relative risk reduction of new vertebral fractures versus placebo [1]: 81%
- CTX marker (bone resorption) ([6]; at 18 months): quick return to the baseline
- bone formation marker PINP ([6]; human, in vivo): earlier increase
- trabecular bone score (TBS) ([7]; daily dose of 20 μg, 40 μg or 80 μg for 12 weeks to 24 weeks): significantly increase TBS
- trabecular bone score (TBS) ([7]; human, in vivo): significant increase
- lumbar spine BMD versus placebo ([2]; at 6 months and 12 months): statistically significant increase
- lumbar spine BMD ([2]; at 18 months): non-statistically significant BMD increase
- BMD increase at total hip as compared to teriparatide [2, 10]: significantly greater BMD increase
- BMD increase for lumbar spine as compared to teriparatide ([2]; overweight patients, 6 months): significantly greater BMD increase
- BMD increase at the femoral neck as compared to teriparatide ([2]; overweight patients, 12 and 18 months): significantly greater BMD increase
- BMD increase as compared to placebo [2, 10]: significant improvements
- BMD increase as compared to placebo ([2]; overweight patients, 6, 12 and 18 months, listed as abaloparatide): significantly greater BMD increase
- BMD in total hip and femoral neck versus teriparatide or placebo ([2]; treated for 18 months): significant BMD increase
- fracture risk versus placebo for 18 months followed by similar anti-resorptive therapy [8]: significant reduction
- bone loss [9]: complete reversal of bone loss
- clinical fractures, reduction versus placebo [3, 11]: statistically significant reduction; also recorded: numerical reduction
- major osteoporotic fractures (MOF), reduction versus placebo (Kaplan-Meier estimated cumulative incidence) [3, 11]: statistically significant reduction; also recorded: significant risk reduction
- non-vertebral fractures (NVF), reduction versus placebo (Kaplan-Meier estimated cumulative incidence) [3, 11]: statistically significant reduction; also recorded: significant risk reduction
- wrist fracture, reduction versus placebo [3, 11]: numerical reduction
- effect on NVF, clinical fractures, MOF and wrist fractures compared with teriparatide ([3]; overweight population, all categories): significantly better than teriparatide
- risk of major osteoporotic fracture and any clinical fracture, irrespective of baseline fracture probability (FRAX) ([3]; postmenopausal overweight women): significantly decrease
- Creatine renal clearance increased, (%) ([4]; in vivo): (5.7) %
- Arthralgia, (%) ([4]; in vivo): (9.2) %
- Back pain, (%) ([4]; in vivo): (8.0) %
- Discontinuations, (%) ([4]; in vivo): (5.7) %
- Dizziness, (%) ([4]; in vivo): (11.1) %
- Urinary tract infection, (%) ([4]; in vivo): (6.9) %
- ≥1 TEAE, (%) ([4]; in vivo): (91.6) %
- Deaths, (%) [4, 12]: (0.8) %
- Headache, (%) [4, 12]: (5.0) %
- Hypercalciuria, (%) [4, 12]: (9.5) %
- Hypertension, (%) [4, 12]: (9.5) %
- Influenza, (%) [4, 12]: (6.1) %
- Nasopharyngitis, (%) [4, 12]: (5.0) %
- Nausea, (%) [4, 12]: (6.1) %
- Pain in extremity, (%) [4, 12]: (6.9) %
- Serious TEAEs, (%) [4, 12]: (13.7) %
- Upper respiratory tract infection, (%) [4, 12]: (8.8) %
